We go through 7 compounds from patent US6603023B2 (priority 1996, dated 2003).

Structures are written as SMILES. Where two headings read alike, the source gives them in different places. Some results are limits rather than exact numbers.

One test concerns CCRF-CEM/VM1. The experiment in a line: cells. The conditions noted are these: Table 6. In kind it is cell-based, human. The method, then: (§1) The drug-resistant cell lines were continuously cultured in the presence of the selecting agent, AD, DX, VBL or VM to maintain the drug resistant phenotypes. […] All cells were cultured in RPMI 1640-10% FBS at 37° C. 5% CO2 (see below).
(§2) The cells were cultured at an initial density of 5×10^4 cells/mL. They were maintained in a 5% CO2-humidified atmosphere at 37° C. in RPMI-1640 medium (GIBCO-BRL, Gaithersburg, Md.) containing penicillin (100 U/mL), streptomycin ([…]) (GIBCO-BRL) and 10% heat inactivate fetal bovine serum. Culture for cell suspension (such as for CCRF-CEM, P388 and sublines), were performed by the XTT-microculture tetrazonium method (Scudiero, D. A. et al., Cancer Res. 1988, 48, 4827-4833) in duplicate in 96-well microtiter plates.
(§3) 2′,3′-Bis(methoxy-4-nitro-5-sufophenyl)-5-[(phenylamino)carbonyl]2H-tetrazolium hyudroxide (XTT) was prepared at 1 mg/mL in prewarmed (37° C.) medium without serum. Phenazine methosulfate (PMS) and fresh XTT were mixed together to obtain 0.025 mM PMS-XTT solution (25 μL of the stock 5 mM PMS was added per 5 mL of 1 mg/mL XTT). Following a 72 h incubation, 50 μL of the assay aliquots were added to each well of the cell culture. After incubation at 37° C. for 4 h, absorbance at 450 nm and 630 nm was measured with a microplate reader (EL340, Bio-Tek Instruments, Inc., Winooski, Vt.).

Another test deals with CCRF-CEM/VBL100. The experiment in a line: cells. In kind it is cell-based, human. The method, then: as §1, §2, §3
Test [1] has as its system CCRF-CEM human T-cell acute lymphoblastic leukemia cell line. The experiment in a line: XTT cytotoxicity (cell growth inhibition), CCRF-CEM. The method, then:
The DC-3F hamster lung fibroblast cell line and its actinomycin D-selected sublines (DC-3F/ADII and DC-3F/ADX) were obtained from the Memorial Sloan-Kettering Cancer Center (MSKCC).
as §1, §2, §3
On the technique in general: Formazan colour is commonly taken as a measure of viable cells.

Setting [2] is: single determinations, read-out: IC50.
[3] abbreviates: Table 6, single determinations, read-out: IC50.
[4] abbreviates: Table 7, CEM/VBL, read-out: IC50.

A word on the IC50: it is the concentration at which inhibition is half-maximal. Regarding `CC(=Cc1csc(C)n1)C1CC2OC2CCCCC(O)C(C)C(=O)C(C)(C)C(O)CC(=O)O1` (mixture of isomers) [8-desmethyl Mix-cis Epo], the IC50 came to 2550 nM with CCRF-CEM/VM1 (setting [2]); 5950 nM in the test on CCRF-CEM/VBL100 (setting [3]); 960 nM in test [1] (Table 6, single determinations).

With `CC(=Cc1csc(C)n1)C1CC=CCCCC(C)C(O)C(C)C(=O)C(C)(C)C(O)CC(=O)O1` (stereo not shown) [#4], the IC50 with CCRF-CEM/VM1 (single determinations, listed as 4, read-out: IC50) was found to be 2760 nM; with CCRF-CEM/VBL100 (Table 6, single determinations, listed as 4, read-out: IC50) it was 43000 nM; with CCRF-CEM/VBL100 (Table 7, CEM/VBL, listed as 4, read-out: IC50), 43800 nM; in test [1] (Table 6, single determinations, listed as 4) it was 2120 nM; in test [1] (Table 7, CEM, listed as 4), 2100 nM.

In the case of `CC(=Cc1csc(C)n1)C1CC2OC2CCCC(C)C(O)C(C)C(=O)C(C)(C)C(O)CC(=O)O1` (stereo not shown) [#5], the IC50 in the test with CCRF-CEM/VM1 (setting [2]) was 98000 nM; in the test on CCRF-CEM/VBL100 (setting [3]) it was 35200 nM; with CCRF-CEM/VBL100 (setting [4]), 35200 nM; in test [1] (Table 6, single determinations), > 20000 nM; in test [1] (Table 7, CEM), > 20000 nM.

Turning to `CC(=Cc1csc(C)n1)C1CC=CCCCC(C)C(O)C(C)C(=O)C(C)(C)C(O)CC(=O)O1` (stereo not shown) [#6], the IC50 with CCRF-CEM/VM1 (single determinations, listed as 6, read-out: IC50) was 111 nM; in the test with CCRF-CEM/VBL100 (Table 6, single determinations, listed as 6, read-out: IC50) it was 35 nM; in the test on CCRF-CEM/VBL100 (Table 7, CEM/VBL, listed as 6, read-out: IC50), 35 nM; in the test with CCRF-CEM/VBL100 (read-out: IC50) it was 35 nM; in test [1], 52 nM; in test [1] (Table 6, single determinations, listed as 6), 52 nM. In test [1] (Table 7, CEM, listed as 6), the IC50 stood at 52 nM. The “Rel. Value (potency relative to Epo B)” value in test [1] (CCRF-CEM leukemic cells) was 1/149.

With `C/C(=C\c1csc(C)n1)[C@@H]1C[C@@H]2O[C@]2(C)CCC[C@H](C)[C@H](O)[C@@H](C)C(=O)C(C)(C)[C@@H](O)CC(=O)O1` [#8, epothilone B], the half-inhibitory concentration (IC50) stood at 1.26 nM with CCRF-CEM/VM1 (read-out: IC50 (mean ± of determinations, in parentheses)); 4.4 nM in the test with CCRF-CEM/VM1 (single determinations, listed as 8, read-out: IC50); 1.8 nM in the test with CCRF-CEM/VM1 (single determinations, listed as EPOTHILONE B (Synthetic), read-out: IC50); 1.7 nM in the test with CCRF-CEM/VBL100 (Table 5, CCRF-CEM/VLB, single determinations, read-out: IC50); 2.13 nM in the test on CCRF-CEM/VBL100 (Table 6, read-out: IC50 (mean ± of determinations, in parentheses)); 2.9 nM with CCRF-CEM/VBL100 (Table 6, single determinations, listed as 8, read-out: IC50). Moreover, the IC50 with CCRF-CEM/VBL100 (Table 6, single determinations, listed as EPOTHILONE B (Synthetic), read-out: IC50) is 3.1 nM; in the test on CCRF-CEM/VBL100 (Table 7, CEM/VBL, listed as synthetic epothilone B, read-out: IC50), 2.93 nM; in test [1] (Table 5, single determinations) it was 0.42 nM; in test [1] (Table 6, single determinations, listed as 8) it was 0.82 nM; in test [1] (Table 6, single determinations, listed as EPOTHILONE B (Synthetic)), 0.55 nM; in test [1] (Table 7, CEM, listed as synthetic epothilone B), 0.82 nM. Besides, in test [1] (read-out: IC50 (mean ± of determinations, in parentheses), Table 6), the IC50 is 0.35 nM.

For `C/C(=C\c1csc(C)n1)[C@@H]1C[C@@H]2O[C@]2(C)CCC[C@H](C)[C@H](O)[C@@H](C)C(=O)C(C)(C)[C@@H](O)CC(=O)O1` [#9, epothilone B], the IC50 is 1.8 nM with CCRF-CEM/VM1 (single determinations, listed as 9, read-out: IC50); 0.77 nM in the test on CCRF-CEM/VM1 (single determinations, listed as EPOTHILONE B (Natural), read-out: IC50); 2.6 nM in the test on CCRF-CEM/VBL100 (Table 6, single determinations, listed as 9, read-out: IC50); 1.7 nM with CCRF-CEM/VBL100 (Table 6, single determinations, listed as EPOTHILONE B (Natural), read-out: IC50); 2.63 nM in the test on CCRF-CEM/VBL100 (Table 7, CEM/VBL, listed as natural epothitone B, read-out: IC50); 0.44 nM in test [1] (Table 6, single determinations, listed as 9). Besides, the IC50 stood at 0.17 nM in test [1] (Table 6, single determinations, listed as EPOTHILONE B (Natural)) and 0.44 nM in test [1] (Table 7, CEM, listed as natural epothitone B). Further, the “relative resistance (fold) vs parent cell line” value in the test on CCRF-CEM/VBL100 (Table 6) is “(7.0X)”.

Turning to `CC1=CCC(C(C)=Cc2csc(C)n2)OC(=O)CC(O)C(C)(C)C(=O)C(C)C(O)C(C)CCC1` (stereo not shown) [#11], the IC50 with CCRF-CEM/VM1 (setting [2]) is 94 nM; in the test on CCRF-CEM/VBL100 (setting [3]) it was 262 nM; in the test with CCRF-CEM/VBL100 (setting [4]) it was 262 nM; in the test on CCRF-CEM/VBL100 (read-out: IC50), 262 nM; in test [1] (Table 6, single determinations) it was 90 nM; in test [1] (Table 7, CEM), 90 nM.
